The source made the active and inactive calls. The calls are words filed in the database; no cut-off is given here. Peptide text beside a SMILES is read from it.
What was measured:
[1] = tested on: Human immunodeficiency virus 1; assay: Binding affinity to HIV1 fusion protein in PLGA nanoparticles assessed as protein-protein interactions by STD-NMR spectroscopy
[2] = tested on: Human immunodeficiency virus 1; assay: Inhibition of fusogenic capacity of HIV1 fusion protein in POPG LUVs assessed as reduction in fusion protein-induced vesicular permeabilization process at compound/fusion protein ratio of 20 by ANTS/DPX assay
[3] = tested on: Human immunodeficiency virus 1; assay: Inhibition of fusogenic capacity of HIV1 fusion protein in rabbit RBCs assessed as reduction in fusion protein-induced hemolsysis at 10 to 1000 uM after 60 mins
[4] = tested on: Human immunodeficiency virus 1; assay: Binding affinity to HIV1 fusion protein in POPG vesicles assessed as induction of conformational changes infusion secondary structure by CD spectroscopy
[5] = tested on: Human immunodeficiency virus 1; assay: Binding affinity to biotin-labeled HIV1 fusion protein using 5 uM compound immobilized on microtiter plates by ELISA method
[6] = tested on: Human immunodeficiency virus 1; assay: Binding affinity to [W8]HIV1 fusion protein assessed as mole fraction partition coefficients in POPG liposomes by fluorescence assay; settings: Microsome
[7] = biological target: T1, Melittin (Apis mellifera) (UniProt P01501); assay: Binding affinity to bee venom melittin in POPG LUVs assessed as reduction in melittin-induced vesicular permeabilization process at compound/melittin ratio of 10 by ANTS/DPX assay
T1 sequence (whole entry): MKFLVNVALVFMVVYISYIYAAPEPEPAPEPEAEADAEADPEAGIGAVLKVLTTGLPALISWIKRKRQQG

[8] = tested on: Human immunodeficiency virus 1; assay: Binding affinity to HIV1 fusion protein in DPPG lipid monolayers at 5% by compression isotherms analysis
[9] = tested on: Human immunodeficiency virus 1; assay: Inhibition of biotin-labeled HIV1 fusion protein binding to immobilized E1P8cyc peptide by ELISA method
[10] = tested on: Human immunodeficiency virus 1; assay: Binding affinity to biotin-labeled HIV1 fusion protein using compound immobilized on microtiter plates by ELISA method
[11] = tested on: Human immunodeficiency virus 1; assay: Antiviral activity against HIV1 NL4-3 in cell based assay; assay type: functional, organism-based; settings: Human immunodeficiency virus 1, NL4-3
Murine leukemia virus = assay: Binding affinity to NBD-labeled MLV fusion protein in POPG LUVs at 0.0125 to 0.4 uM using Rho-labeled compound by FRET assay
[12] = tested on: Human immunodeficiency virus 1; assay: Inhibition of fusogenic capacity of HIV1 fusion protein in rabbit RBCs assessed as reduction in fusion protein-induced hemolsysis at 1 to 100 uM after 60 mins
[13] = tested on: Human immunodeficiency virus 1; assay: Binding affinity to HIV1 fusion protein in DPPG lipid monolayers assessed as reduction in fusion protein-induced lipid layer phase transition at 5% by fluorescence microscopy
[14] = tested on: Human immunodeficiency virus 1; assay: Binding affinity to NBD-labeled HIV1 fusion protein in POPG LUVs at 0.0125 to 0.4 uM using Rho-labeled compound by FRET assay
[15] = Toxicity against rabbit RBCs assessed as induction of hemolysis after 60 mins; assay type: cell-based, Oryctolagus cuniculus; settings: erythrocyte, 1 h
[16] = tested on: Human immunodeficiency virus 1; assay: Antiviral activity against HIV1 NL4-3 infected in TZM-bl cells assessed as inhibition of viral replication; assay type: functional, organism-based
HeLa [17] = assay: Inhibition of HIV1 fusion protein assessed as inhibition of syncytium formation between HeLa cells expressing HIV-1 envelope protein and TZM-bl cells expressing human CXCR4 receptor; assay type: cell-based; settings: Human immunodeficiency virus 1
HeLa [18] = assay: Inhibition of HIV1 fusion protein assessed as inhibition of syncytium formation between HeLa cells expressing HIV-1 envelope protein and TZM-bl cells expressing human CD4 receptor; assay type: cell-based; settings: Human immunodeficiency virus 1
HeLa [19] = assay: Inhibition of HIV1 fusion protein assessed as inhibition of syncytium formation between HeLa cells expressing HIV-1 envelope protein and TZM-bl cells expressing human CCR5 receptor; assay type: cell-based; settings: Human immunodeficiency virus 1

Compound	Activity [1]	inhibition [2]	inhibition [3]	Activity [4]	Activity [5]	K (mole fraction) [6]	Activity [8]	Activity [9]	inhibition [12]	Activity [13]	Activity [14]	Activity [15]	Activity [16]	inhibition (HeLa [17])	inhibition (HeLa [18])	inhibition (HeLa [19])	further results
CC[C@H](C)[C@H](NC(=O)[C@H](CC(=O)O)NC(=O)[C@H](CCC(=O)O)NC(=O)[C@@H]1CCCN1C(=O)[C@H](C)N)C(=O)NCC(=O)N[C@@H](Cc1ccccc1)C(=O)N[C@@H](CS)C(=O)N[C@@H](CC(C)C)C(=O)N[C@@H](CCC(=O)O)C(=O)NCC(=O)NCC(=O)N[C@@H](CS)C(=O)N[C@@H](CC(C)C)C(=O)N[C@H](C(=O)N[C@@H](C)C(=O)N[C@@H](CC(C)C)C(=O)NCC(=O)O)C(C)C (H-APEDIGFCLEGGCLVALG-OH)	inactive	Active	Active	Active	inactive	730000	–	–	–	–	–	–	–	–	–	–	–
CC[C@H](C)[C@H](NC(=O)[C@H](CC(=O)O)NC(=O)[C@H](CCC(=O)O)NC(=O)[C@@H]1CCCN1C(=O)[C@H](C)N)C(=O)NCC(=O)N[C@@H](Cc1ccccc1)C(=O)N[C@H]1CSSC[C@@H](C(=O)N[C@@H](CC(C)C)C(=O)N[C@H](C(=O)N[C@@H](C)C(=O)N[C@@H](CC(C)C)C(=O)NCC(=O)O)C(C)C)NC(=O)CNC(=O)CNC(=O)[C@H](CCC(=O)O)NC(=O)[C@H](CC(C)C)NC1=O (HELM PEPTIDE1{A.P.E.D.I.G.F.C.L.E.G.G.C.L.V.A.L.G}$PEPTIDE1,PEPTIDE1,8:R3-13:R3$$$V2.0)	Active	–	–	Active	Active	580000	Active	Active	Dose-dependent effect	Active	Active	Non-toxic	–	–	–	–	Imax [2]: 40%; Activity [7]: inactive; Activity [10]: Dose-dependent effect; IC50 [11]: 7.8 µM; Activity (Murine leukemia virus): inactive
H-LEAIPCSIPPEFLFGKPFVF-OH	inactive	–	–	Active	Active	–	Active	–	Active	Active	Active	Non-toxic	Active	Active	Active	Active	–
H-SGVLTVGVALTRRVYPVP-OH	–	inactive	inactive	inactive	inactive	–	–	inactive	–	–	–	–	inactive	inactive	inactive	inactive	–

— ChEMBL document CHEMBL3352681, “A cyclic GB virus C derived peptide with anti-HIV-1 activity targets the fusion peptide of HIV-1” (Eur J Med Chem, 2014)
